Data set [1] concerns Mycobacterium tuberculosis H37Rv (ATCC 25177). Description: Anti-tubercular activity, colorimetric Resazurin Microplate Assay (REMA), susceptible strain. The class given is cell-based. As to conditions: 192 h, Middlebrook 7H9 broth, 37° C., 8 days of incubation then resazurin overnight, read-out: MIC (μg/mL) Susceptible (H37Rv).

≈ marks a conversion by molar mass, not a printed value.

As usually defined, the melting point is the temperature of the solid-liquid transition.

On to `CCOC(=O)c1cc(C(=O)c2ccc(C)cc2)n2c1ccc1cc(C)ccc12`, for which the melting point lay in the range of 155 to 156 °C.

The compound `CCOC(=O)c1cc(C(=O)c2ccccc2)n2c1ccc1cc(C)ccc12` came in with a melting point of 139 to 140 °C.

In turn, `CCOC(=O)c1cc(C(=O)c2ccc(F)cc2)n2c1ccc1cc(C)ccc12` yielded a melting point of 163 to 164 °C.

Take `CCOC(=O)c1cc(C(=O)c2ccccc2[N+](=O)[O-])n2c1ccc1cc(C)ccc12` [Compound 4d, Ethyl 7-methyl-1-(2-nitrobenzoyl)pyrrolo[1,2-a]quinoline-3-carboxylate]: the melting point lay within 174 to 175 °C. Further, the MIC in data set [1] amounted to 8 µg/mL (≈ 19.9 µM).

The compound `CCOC(=O)c1cc(C(=O)c2ccc(Br)cc2)n2c1ccc1cc(C)ccc12` [Compound 4e, Ethyl 1-(4-bromobenzoyl)-7-methylpyrrolo[1,2-a]quinoline-3-carboxylate] gave a melting point of 180 to 181 °C. Further, the MIC in data set [1] was 32 µg/mL (≈ 73.3 µM).

On to `CCOC(=O)c1cc(C(=O)c2cc(C(F)(F)F)cc(C(F)(F)F)c2)n2c1ccc1cc(C)ccc12` [Compound 4f, Ethyl 1-(3,5-bis(trifluoromethyl)benzoyl)-7-methylpyrrolo[1,2-a]quinoline-3-carboxylate], for which the melting point fell in the range of 223 to 224 °C. Moreover, in data set [1], the MIC turned out to be 16 µg/mL (≈ 32.4 µM).

The record behind these values is patent publication US11938120B1 (priority 2023, dated 2024).
